According to US20200190101A1, “Composition Containing Novel Glutamic Acid Derivative And Block Copolymer, And Use Thereof” (Nippon Kayaku Kabushiki Kaisha, priority 2015, published 2020):
Structures can show the parent of a compound that is named as a salt.

Tested on: Human renal cell cancer OS-RC-2
Assay: Test on antitumor effect of Example 6, OS-RC-2
Assay type: in vivo, nude mice
Details: 20 mg/kg in terms of epirubicin, i.v. once
Protocol: Human renal cell cancer OS-RC-2 was transplanted into nude mice similarly to Test Example 15, and after tumor engraftment was confirmed, the composition of Example 6 according to the present invention was dissolved in 5% glucose. The solution was intravenously administered through the caudal vein once at a dose of 10 or 20 mg/kg in terms of epirubicin. Furthermore, as a control drug, epirubicin hydrochloride was dissolved in a physiological solution, and the solution was intravenously administered through the caudal vein once at a dose of 10 or 20 mg/kg in terms of epirubicin.
After the administration, the major axis (L) and the minor axis (W) of a tumor were measured using calipers at an interval of 2 to 3 days, the tumor volume was calculated by the formula: (L×W^2)/2, and the tumor volume change rate from the administration initiation day was determined.

COc1cccc2c1C(=O)c1c(O)c3c(c(O)c1C2=O)C[C@@](O)(C(=O)CO)C[C@@H]3O[C@H]1C[C@H](N)[C@@H](O)[C@H](C)O1 [epirubicin hydrochloride]
Toxicity (death of mice): the mice died 8 days after the administration due to toxicity
